What was measured:
CCRF-CEM = experiment: NCI-60 screening, Leukemia; format: cell-based, human
HL-60(TB) = experiment: NCI-60 screening, Leukemia; format: cell-based, human
K-562 = experiment: NCI-60 screening, Leukemia; format: cell-based, human
MOLT-4 = experiment: NCI-60 screening, Leukemia; format: cell-based, human
HOP-92 = experiment: NCI-60 screening, Non-Small Cell Lung Cancer; format: cell-based, human
NCI-H23 = experiment: NCI-60 screening, Non-Small Cell Lung Cancer; format: cell-based, human
NCI-H460 = experiment: NCI-60 screening, Non-Small Cell Lung Cancer; format: cell-based, human
NCI-H522 = experiment: NCI-60 screening, Non-Small Cell Lung Cancer; format: cell-based, human
COLO 205 = experiment: NCI-60 screening, Colon Cancer; format: cell-based, human
HCC-2998 = experiment: NCI-60 screening, Colon Cancer; format: cell-based, human
HCT-116 = experiment: NCI-60 screening, Colon Cancer; format: cell-based, human
HT29 = experiment: NCI-60 screening, Colon Cancer; format: cell-based, human
SW-620 = experiment: NCI-60 screening, Colon Cancer; format: cell-based, human
SF-539 = experiment: NCI-60 screening, CNS Cancer; format: cell-based, human
SNB-19 = experiment: NCI-60 screening, CNS Cancer; format: cell-based, human
MALME-3M = experiment: NCI-60 screening, Melanoma; format: cell-based, human
M14 = experiment: NCI-60 screening, Melanoma; format: cell-based, human
SK-MEL-28 = experiment: NCI-60 screening, Melanoma; format: cell-based, human
SK-MEL-5 = experiment: NCI-60 screening, Melanoma; format: cell-based, human
IGROV1 = experiment: NCI-60 screening, Ovarian Cancer; format: cell-based, human
Description: Additional four, 10-fold or ½ log serial dilutions are made to provide a total of five drug concentrations plus control.
For adherent cells, the assay is terminated by the addition of cold TCA. Cells are fixed in situ by the gentle addition of 50 μl of cold 50% (w/v) TCA (final concentration, 10% TCA) and incubated for 60 minutes at 4° C. The supernatant is discarded, and the plates are washed five times with tap water and air dried. Sulforhodamine B (SRB) solution (100 μl) at 0.4% (w/v) in 1% acetic acid is added to each well, and plates are incubated for 10 minutes at room temperature. After staining, unbound dye is removed by washing five times with 1% acetic acid and the plates are air dried. […] Using the seven absorbance measurements [time zero, (Tz), control growth, (C), and test growth in the presence of drug at the five concentration levels (Ti)], the percentage growth is calculated at each of the drug concentrations levels. […]
Three dose response parameters are calculated for each experimental agent. […] The drug concentration resulting in total growth inhibition (TGI) is calculated from Ti=Tz. […] Values are calculated for each of these three parameters if the level of activity is reached; however, if the effect is not reached or is exceeded, the value for that parameter is expressed as greater or less than the maximum or minimum concentration tested.

OVCAR-5 = experiment: NCI-60 screening, Ovarian Cancer; format: cell-based, human
OVCAR-8 = experiment: NCI-60 screening, Ovarian Cancer; format: cell-based, human
NCI/ADR-RES = experiment: NCI-60 screening, Ovarian Cancer; format: cell-based, human
DU-145 = experiment: NCI-60 screening, Prostate Cancer; format: cell-based, human
786-0 = experiment: NCI-60 screening, Renal Cancer; format: cell-based, human
CAKI-1 = experiment: NCI-60 screening, Renal Cancer; format: cell-based, human
RXF 393 = experiment: NCI-60 screening, Renal Cancer; format: cell-based, human
UO-31 = experiment: NCI-60 screening, Renal Cancer; format: cell-based, human
MDA-MB-231 ATCC = experiment: NCI-60 screening, Breast Cancer; format: cell-based, human
BT-549 = experiment: NCI-60 screening, Breast Cancer; format: cell-based, human
T-47D = experiment: NCI-60 screening, Breast Cancer; format: cell-based, human
[1] = tested on: human umbilical vein endothelial cells (HUVEC); experiment: Matrigel in vitro HUVECs tube formation assay (angiogenesis); format: cell-based; details: 1 μM concentration, all measured time points
Description: Matrigel in vitro HUVECs tube formation assay: The tube formation assay was performed using 12-well plate coated with 100 μL Matrigel basement membrane matrix (BD Bioscience) per well and polymerized at 37° C. for 30 min. Human umbilical vascular endothelial cells (HUVECs) suspended in M199 medium containing 2% FBS were plated on the Matrigel at a density of 2×10^5 cells/well. […] After 8 h, the Matrigel-induced morphological changes were photographed and the extent of capillary tube formation was evaluated by measuring the total tube length per field.

[2] = tested on: Patient derived tumor (melanoma); experiment: Immunohistochemistry analysis of treated patient derived tumor; format: cell-based, human; details: 10 nM and 1 uM for 5 days
Description: Patient derived tumor (melanoma) was treated with the compounds at 10 nM and 1 uM for 5 days in RPMI medium and harvested on day 6 using established protocol and immunohistochemistry was performed for different antibodies including p53, LIF, MDM2, pSTAT3, Ki67.

MCF-7 cells = experiment: P53 / MDM2 levels in MCF-7 cells; format: cell-based, human
SMAD = experiment: Phosphorylation of SMAD; format: cell-based; details: thorough blocking TGF-beta

## C#CC(F)(F)[C@]1(O)CCC2C3CCC4=CC(=O)CCC4=C3C(c3ccc(C4CC4)cc3)C[C@@]21C (stereo partly drawn) [EC330, 17α-(1,1-difluoro-2-propyn-1-yl)-17β-hydroxy-11β-[4-p-(cyclopropyl)phenyl]estra-4,9-dien-3-one]
CCRF-CEM
  TGI (log10TGI): <−8.00
HL-60(TB)
  TGI (log10TGI): <−8.00
K-562
  TGI (log10TGI): >−4.00
MOLT-4
  TGI (log10TGI): −5.30
HOP-92
  TGI (log10TGI): <−8.00
NCI-H23
  TGI (log10TGI): <−8.00
NCI-H460
  TGI (log10TGI): −4.80
NCI-H522
  TGI (log10TGI): <−8.00
COLO 205
  TGI (log10TGI): −5.53
HCC-2998
  TGI (log10TGI): −4.37
HCT-116
  TGI (log10TGI): −4.55
HT29
  TGI (log10TGI): −6.72
SW-620
  TGI (log10TGI): −4.79
SF-539
  TGI (log10TGI): −7.77
SNB-19
  TGI (log10TGI): >−4.00
MALME-3M
  TGI (log10TGI): <−8.00
M14
  TGI (log10TGI): −4.45
SK-MEL-28
  TGI (log10TGI): −5.43
SK-MEL-5
  TGI (log10TGI): −4.79
IGROV1
  TGI (log10TGI): <−8.00
OVCAR-5
  TGI (log10TGI): −5.25
OVCAR-8
  TGI (log10TGI): −4.43
NCI/ADR-RES
  TGI (log10TGI): −5.41
DU-145
  TGI (log10TGI): −4.75
786-0
  TGI (log10TGI): <−8.00
CAKI-1
  TGI (log10TGI): −6.41
RXF 393
  TGI (log10TGI): −5.09
UO-31
  TGI (log10TGI): <−8.00
MDA-MB-231 ATCC
  TGI (log10TGI): −5.46
BT-549
  TGI (log10TGI): −5.30
T-47D
  TGI (log10TGI): −5.00
[1]
  tube formation: complete abrogation of tube formation
[2]
  apoptosis, p53, MDM2, LIF mediated STAT3 phosphorylation (immunohistochemistry): induce apoptosis and restore p53 by inhibiting MDM2 and LIF mediated STAT3 phosphorylation
MCF-7 cells
  P53 levels / MDM2: restore P53 levels by inhibiting MDM2
SMAD
  phosphorylation of SMAD: indirectly diminish the phosphorylation of SMAD

From US20200087340A1, “LIF/LIFR ANTAGONIST IN ONCOLOGY AND NONMALIGNANT DISEASES” (Evestra, Inc., priority 2018, published 2020)
